# Source: patent US20180311237A1, “COMPOSITIONS AND METHODS FOR PREVENTING AND TREATING MUCOSITIS AND WEIGHT LOSS” (ST IP Holding AG, priority 2007, published 2018)
# Where “and” joins values, the source holds several entries; their conditions need not be identical. Equal entries are not always repeated. Where two headings read alike, the source gives them in different places. Marks after values point to notes of the source that are not given here.
# Key:
# [1] = Protocol: The general condition and body weights of the mice in all groups were observed daily. The percent change in body weight in each group of mice was recorded every day by dividing the average body weight of those mice on the first day of treatment.
# [2] = test system: endogenous spleen colony forming units (CFU-S); conditions: day 10 post-irradiation
# Protocol: The endogenous spleen colony assay was done according to the method of Till and McCulloch. Endogenous spleen colony forming units (CFU-S) were determined on day 10 after irradiation. Animals were sacrificed by cervical dislocation. Their spleens were removed, weighed and fixed in Bouin's fixative. Grossly visible nodules on the surface of the spleen were counted with the naked eye.
# [3] = test system: lipid peroxidation (TBARS)
# Protocol: (§1) Thirty minutes after the last administration, the animals were exposed to 8 Gy gamma radiation. Survival of the animals was recorded for 30 days after irradiation. The reduced glutathione (GSH) and lipid peroxidation (LPO) levels in liver and blood were estimated after 30 minutes of radiation exposure.
# The absorbance was read at 532 nm.
# Remark: listed apart in the source
# [4] = test system: NCI-H146 (H146) small cell lung cancer cells
# Protocol: Ninety-six (96) female nude mice ([…]) were randomly assigned into 8 treatment groups. Each mouse was inoculated with 1×10^6 NCI-H146 (H146) small cell lung cancer cells in a volume of 0.05 mL on their lower left flank with Matrigel. Treatment began once tumors reached a volume of 75-125 mm^3.
# Initiation of drug treatment was designated day 1. Mice in groups 1 and 5 received vehicle by oral gavage once daily on days 1 and 3. […] Mice in groups 5 to 8 received radiation. The radiation was given as 2 doses of 2 Gy/dose on days 2 and 4. This was accomplished by anesthetizing the mice in these groups with ketamine (100 mg/kg) and xylazine (5 mg/kg) and placing them under a lead shield such that the region of the flank with tumor exposed to the radiation. Radiation was delivered using a Philips 160 kV source at a focal distance of approximately 40 cm, and a dose rate of approximately 1.0 Gy/min. Tumours were measured on alternating days throughout the duration of the study. All mice were sacrificed on day 21 and remaining tumours were excised, measured, weighed, photographed and fixed in formalin for later analysis.
# H146 human lung cancer cells were obtained from ATCC. These cells were grown in DMEM supplemented with 10% Fetal Calf Serum (FCS), penicillin and streptomycin, and 2 mM L-Glutamine. Cells were sub-cultured by removing the medium, rinsing twice with sterile calcium- and magnesium-free phosphate buffered saline (PBS) and adding 1 to 2 ml of 0.25% trypsin, 0.03% EDTA solution. The flask was allowed to sit at 37° C. until the cells detached. Cells were then sub-cultured at a ratio of 1:3.
# Tumours were measured once every two days with micro-calipers, and tumour volume was calculated as (length×width)[…]. The tumour growth index (TGI) was calculated using the formula 100−([…]), where Vc is the mean volume of the tumours in the control group and Vt is the mean volume of the tumours in the test group.
# Tumour volumes were calculated from the length and width measurements taken on alternating days by calculating the mean radius (r), which was the sum of length and width divided by 4, and using the formula 4/3 πr^3 to calculate the volume.
# [5] = test system: mice exposed to 6, 8 and 10 Gy gamma radiation
# Text: Male Swiss albino mice (Mus musculus), 6-8 weeks old with 25±3 g body weight from an inbred colony (obtained from Hamadard University, Delhi, India) were used for the present study. Animals were maintained under controlled conditions of temperature and light in an animal house and were provided with standard mice feed (procured from Hindustan Lever's Ltd. Delhi, India) and water ad libitum.
# Cobalt teletherapy unit (ATC-C9) at the Cancer treatment centre, Radiotherapy Department, SMS Medical College & Hospital, Jaipur, India, was used for irradiation.
# as §1
# The protective capacity of an agent (chemical or plant extract) is expressed as dose reduction factor (DRF). It can be calculated by dividing the LD50/30 of experimental animals by LD^50/30 of control animals.
# Mice of both groups (control as well as experimental) exposed to 6, 8 and 10 Gy gamma radiation were checked daily for 30 days and the percentage of mice surviving 30 days of exposure against each radiation dose was used to construct survival-dose response curves.
# The results obtained are expressed as mean±SE. Student's “t” test was used to make a statistical comparison between the groups. Significance levels were set at P<0.05, P<0.01 and P<0.001. Regression analysis was done to obtain LD50/30 values and to determine the dose reduction factor (DRF).
# [6] = 100 mg/kg body weight/day, 2 days, + gamma radiation
# [7] = 50 mg/kg on days 1 and 3, no radiation
# [8] = 50 mg/kg on days 1 to 20, no radiation
# [9] = 100 mg/kg on days 1 and 3, no radiation
# [10] = radiation plus 50 mg/kg on days 1 and 3
# [11] = radiation plus 50 mg/kg on days 1 to 20
# [12] = radiation plus 100 mg/kg on days 1 and 3
structure (smiles),measurement,setting,value
Cc1c(-c2cnccn2)ssc1=S,Maximum body weight loss in experimental groups,[1]; [6],22.05%
same,minimum body weight loss in experimental groups,[1]; [6],1.7%
same,increase in body weight from initial body weight at day-30 post-irradiation,[1]; drug + 6 Gy,17%
same,increase in body weight from initial body weight at day-30 post-irradiation,[1]; drug + 8 Gy,9.5%
same,increase in body weight from initial body weight at day-30 post-irradiation,[1]; drug + 10 Gy,13.7%
same,Number of Mn/1000 Cells,bone marrow cells; drug + 8.0 Gy gamma rays,6.58 ± 0.64^c
same,Number of Mn/1000 Cells,bone marrow cells; drug alone,0.28 ± 0.01
same,Number of macroscopic colonies,[2]; drug + 6 Gy,10.22 ± 0.62
same,Number of macroscopic colonies,[2]; drug + 8 Gy,13.80 ± 0.84^c
same,Number of macroscopic colonies,[2]; drug + 10 Gy,15.22 ± 0.77^c
same,Blood LPO,[3]; drug + 6 Gy,2.44 ± 0.16^c nmol/ml
same,Liver LPO,[3]; drug + 6 Gy,3.22 ± 0.12^c nmol/mg
same,Blood LPO,[3]; drug + 8 Gy,3.28 ± 0.16^a nmol/ml
same,Liver LPO,[3]; drug + 8 Gy,3.80 ± 0.14^c nmol/mg
same,Blood LPO,[3]; drug + 10 Gy,3.68 ± 0.18^b nmol/ml
same,Liver LPO,[3]; drug + 10 Gy,5.22 ± 0.27^c nmol/mg
same,Blood LPO,"[3]; drug alone, no irradiation",1.10 ± 0.10 nmol/mL
same,Liver LPO,"[3]; drug alone, no irradiation",2.42 ± 0.14 nmol/mg
same,dose up to which no signs of toxicity and no mortality were observed,"fasted 18 hours, observed 14 days post-drug treatment",up to 2 g/kg
same,amount administrable without significant toxicity,formulated with carboxymethyl cellulose (CMC),up to 2000 mg/kg
same,mean tumour volume on Day 1,[4]; [7],72 mm^3
same,mean tumour volume on Day 21,[4]; [7],940 mm^3
same,mean tumour volume on Day 1,[4]; [8],76 mm^3
same,mean tumour volume on Day 21,[4]; [8],1130 mm^3
same,mean tumour volume on Day 1,[4]; [9],110 mm^3
same,mean tumour volume on Day 21,[4]; [9],1341 mm^3
same,effect on tumour volume when given in conjunction with radiation therapy,[4]; doses and dose schedules of this study,does not have an additive effect
same,mean tumour volume on Day 1,[4]; [10],93 mm^3
same,mean tumour volume on Day 21,[4]; [10],971 mm^3
same,mean tumour volume on Day 1,[4]; [11],140 mm^3
same,mean tumour volume on Day 21,[4]; [11],1380 mm^3
same,mean tumour volume on Day 1,[4]; [12],63 mm^3
same,mean tumour volume on Day 21,[4]; [12],769 mm^3
same,tumour volume relative to vehicle controls by day 21,"[4]; single agent, 50 mg/kg once daily on days 1 and 3 (P=0.030)",significant reduction in tumour volume
same,radiation sickness,[5]; 100 mg/kg body weight/day before 6 Gy,No radiation sickness was observed
same,30-Day Survival Percentage,"[5]; 100 mg/kg body weight/day orally, 2 days, before 6 Gy",100%
same,30-Day Survival Percentage,"[5]; 100 mg/kg body weight/day orally, 2 days, before 8 Gy",61%
same,30-Day Survival Percentage,"[5]; 100 mg/kg body weight/day orally, 2 days, before 10 Gy",20%
same,LD50/30 of experimental animals,"[5]; 100 mg/kg body weight/day orally, 2 days, before radiation, regression analysis of survival data",8.82 Gy and 8.51 Gy
same,DRF (dose reduction factor),[5]; LD50/30 of experimental animals divided by LD50/30 of control animals,1.34
same,optimum dose exhibiting maximum radioprotection,[5]; for 2 consecutive days before irradiation (8 Gy),100 mg/kg body weight/day
